These results are taken from patent publication US7799794B2, “Treatment for cardiovascular disease” (Merck Sharp & Dohme Corp., priority 2000, dated 2010).

What all share (type): in vivo, rat
In assay [1] the test system is Sprague-Dawley rats. The experiment in a line: Allopurinol intervention or oxonic acid withdrawal in hyperuricemic rats: blood pressure (Example 3). Particulars: allopurinol added at 7 weeks, OA/LSD continued. The source says:
(§1) Rats were placed on the low sodium diet with oxonic acid for 7 weeks, and then were matched based on uric acid level and blood pressure in various groups to either receive allopurinol, have the oxonic acid withdrawn from the diet, or continue the oxonic acid/low salt diet. A control group of six rats were placed on the lowsodium diet alone for 11 weeks. All of these rats were sacrificed at week 11.
Am J Physiol 268:F1 164-76, 1995].
(§2) Am J Clin Pathol 1957; 28:152.]. Serum blood urea nitrogen was measured by a standard kit (Sigma, St Louis, Mo.).

In assay [2] the test system is Sprague-Dawley rats. The experiment in a line: Oxonic acid on low sodium diet with or without allopurinol: blood pressure, uric acid (Example 2). The following applies: allopurinol from the initiation of the oxonic acid diet, low salt. The procedure: All studies utilized adult male Sprague-Dawley rats (Simonsen Laboratories, Gilroy Calif.)(200-250 g).
(§3) Rats were placed on a low sodium diet (NaCl, 0.125%) with or without 2% oxonic acid for 7 weeks. A third group were administered allopurinol in the drinking water (150 mg/L) with weekly adjustments of the dose depending on the uric acid level.
Am J Physiol 268:F1164-76, 1995].
as §2

Assay [3] deals with Sprague-Dawley rats. Put plainly: Renal findings at 11 weeks: immunohistochemistry and BUN (Example 3). The following applies: low NaCl diet, allopurinol added at 7 weeks. As for the experimental part: as §1, §2
(§4) Renal biopsies were fixed in Methyl-Carnoy's, 10% formalin or 100% ethanol and embedded in paraffin. The presence of uric acid crystals was evaluated by staining 4-μm ethanol-fixed sections with de Galantha and modified Von Kossa stains. Kidney tissue from rats with acute uric acid nephropathy, induced with oxonic acid and uric acid administration was used as a positive control [Stavric, B., Johnson, W. J., and Grice, H. C., Uric acid nephropathy: An experimental model, Proc. Soc. Exp. Biol. Med. 130: 512-16 (1969).]. Light microscopy was performed in 4-μm sections of Methyl-Carnoy's fixed tissue stained with periodic acid Schiff (PAS) reagent or with hematoxylin and eosin.
(§5) Methyl-Carnoy's fixed tissue sections were analyzed by indirect immunoperoxidase [Lombardi, D., Gordon , K. L., Polinsky, P., Suga, S., Schwartz, S. M., and Johnson, R. J. Salt sensitive hypertension develops after transient exposure to angiotensin II. Hypertension 33:1013-1019, 1999] staining with the following primary antibodies: OP199, a goat polyclonal antibody against osteopontin (OPN)(gift of C. Giachelli, Univ of Wash., Seattle); ED-1, a monoclonal antibody to rat monocytes and macrophages (Serotec); goat antihuman type III collagen (Southern Biotechnology Associates Inc, Birminghan Ala.); and anti-renin, a mouse antibody to human renin (Sanofi Recherche, Montpellier, France). Sections were incubated with a secondary antibody followed by horseradish peroxidase-conjugated avidin D (Vector Laboratories, Burlingame, Calif.), diaminobenzidine (Sigma) with or without nickel chloride as a chromogen, and counsterstained with methyl green.
(§6) NOS1 was detected on formalin fixed tissue sections with a rabbit anti-rat neuronal nitric oxide synthase (Transduction Laboratories, Lexington, Ky.), followed by a biotinylated secondary antibody, diaminobenzidine with nickel chloride and counterstained with nuclear fast red.
(§7) All quantification was performed blinded. The tubular expression of osteopontin (OPN), which is a sensitive marker of tubulointerstitial injury, was calculated as the percent of renal cortex occupied by OPN-positive tubules [Lombardi, D., Gordon, K. L., Polinsky, P., Suga, S., Schwartz, S. M., and Johnson, R. J. Salt sensitive hypertension develops after transient exposure to angiotensin II. Hypertension 33:1013-1019, 1999]. Utilizing computer-assisted image analysis software (Optimas V6.2, Media Cybernetics, Silver Springs, Md.) and digitized images, the percent of area occupied by OPN positive tubules per 4 mm^2 field at a magnification of 50× was measured and the mean percent area calculated for each biopsy. The interstitial deposition of collagen type III was calculated as the % of renal cortex occupied by collagen III, noted by immunostaining, by computer image analysis. The mean number of interstitial macrophages (ED-1+cells) in each biopsy was calculated in a blinded manner by counting the total number of positive interstitial cortical cells in 20 sequentially selected 0.25 mm^2 grids at 200× magnification. Renin expression was quantified by the number of glomeruli with positive staining for juxtaglomerular renin using a minimum of 100 glomeruli in each biopsy as previously described [Eng, E., et al., Renal proliferation and phenotypic changes in rats with two-kidney, one-clip Goldblatt hypertension. […]

Assay [4] deals with Sprague-Dawley rats. The experiment in a line: Renal findings at 7 weeks: immunohistochemistry and BUN (Example 2). The following applies: low NaCl diet. The procedure: as §3, §2, §4, §5, §6
as §7, with “hypertension. Am J Hypertens 7:177-185 (1994)]; this has been shown previously to correlate with intrarenal renin content[Eng, E., et al., Renal proliferation and phenotypic changes in rats with two-kidney, one-clip Goldblatt hypertension. Am J Hypertens 7:177-185 (1994)].” for “hypertension.”

Regarding `Oc1ncnc2[nH]ncc12` [Allopurinol, allopurinol], the “blood pressure and serum uric acid in hypertensive, hyperuricemic rats” value in the assay with Sprague-Dawley rats [1] is on record as “reduction in the blood pressure in association with a fall in serum uric acid values”. The “development of hyperuricemia and hypertension” value in the assay on Sprague-Dawley rats [2] is “prevented”. Moreover, the OPN with Sprague-Dawley rats [3] (control 0.7 ± 0.08) was determined as 0.97 ± 0.03 % increase; in the assay on Sprague-Dawley rats [4] (mean±SE, control 0.9 ± 0.06), 1.3 ± 0.15 % increase. Further, the “Type III collagen” value is reported as 9.6 ± 0.3 % in the assay on Sprague-Dawley rats [3] (control 7.2 ± 0.6) and 6.2 ± 0.6% in the assay on Sprague-Dawley rats [4] (mean±SE, control 5.4 ± 0.3). Moreover, the BUN in the assay with Sprague-Dawley rats [3] (control 16.6 ± 0.9) amounted to 17.7 ± 0.5 mg/dL; in the assay on Sprague-Dawley rats [4] (mean±SE, control 14.4 ± 1.2), 15.2 ± 2.3 mg/dL. The “ED-1 (macrophages)” value is 25.2 ± 2.6 cells/mm2 in the assay with Sprague-Dawley rats [3] (control 27.8 ± 1.4) and 20.5 ± 0.6 cells/mm2 in the assay on Sprague-Dawley rats [4] (mean±SE, control 18.3 ± 1.3). Besides, the results for the Renin with Sprague-Dawley rats [3] (control 41.0 ± 1.9) and in the assay on Sprague-Dawley rats [4] (control 39.6 ± 2.0) were 44.2 ± 1.3 % positive JGA and 44.1 ± 1.6 % positive JGA, respectively. Moreover, the results for the NOS-1 with Sprague-Dawley rats [3] (control 104.4 ± 11.5) and in the assay on Sprague-Dawley rats [4] (control 147.2 ± 12.4) were 98.6 ± 5.1 positive cells/100 glomeruli and 97.4 ± 5.6 positive cells/100 glomeruli, respectively.
